Legend:
[1] = orally or parenterally; cited from earlier work
[2] = tested on: Schizosacch. pombe P1; assay: Generic mutation; conditions: 1000-100-10 mcg/plate
[3] = tested on: salmonella thyphimurium, 5 different strains; assay: Mutagenesis (Salmonella, 5 different strains); conditions: 1000-100-10 mcg/plate
Description: Mutagenesis (salmonella thyphimurium, 5 different strains): 1000-100-10 mcg/plate: negative.

[4] = tested on: Sacch. cerevisiae D4; assay: Genetic conversion; conditions: 1000-100-10 mcg/plate
[5] = Sub-acute toxicity, 4 weeks; format: in vivo; conditions: daily oral and intra-peritoneal 10, 20 and 40 mg/kg/day
Procedure: After daily oral and intra-peritoneal administration of 10,20 and 40 mg/kg/day of compound (V) for 4 weeks, no effect is observed on mortality, body weight, alimentation, hematological or urinary data, autoptic examination, weight or histology of the organs.

[6] = tested on: cGMP in the rat cerebellum; assay: Effect on the cGMP levels in the rat cerebellum; format: in vivo; conditions: i.v., 1 hour after administration, saline = 100
Procedure: The cGMP is measured 1 hour after administration.

[7] = Acute toxicity, mouse; conditions: in vivo, observation 14 days, read-out: DL50
Description: (§1) |Observation period: 14 days

[8] = Acute toxicity, rat; conditions: in vivo, observation 14 days, read-out: DL50
Description: as §1

[9] = tested on: EEG in Rabbits; format: in vivo
Procedure: At doses of 100 and 50 mg/kg i.v., electrical activity becomes evidently synchronous 10 minutes after administration, and lasts for about 3 hours. […] After 4 hours, behaviour and EEG become normal.

[10] = tested on: Plasmatic Prolactin Levels (PRL); assay: Effect of compound (V) administered intravenously to the rat on plasmatic prolactin levels (PRL); format: in vivo
Description: 4. Effect of Compound (V) Administered Intravenously to the Rat, on the Plasmatic Prolactin Levels (PRL)

[11] = tested on: animals (Rat, Mouse); assay: Acute toxicity, symptoms observed in the animals (rat, mouse); format: in vivo
Procedure: Observation period: 14 days
(+) from 500 mg/kg upwards, the animals show sedation symptoms.

[12] = tested on: Spinal Medulla of the Cat; assay: Effect on the spinal medulla of the cat; format: in vivo; conditions: 3-30 mg/kg i.v.
[13] = line marked (+), route not given

NCCCC(=O)O [GABA, gamma-amino butyric acid]
crossing of the blood-brain barrier (GABA) [1]: does not cross the blood-brain barrier

O=C(O)CCCNCCC(=O)O [Compound (V), N-β-carboxyethyl-γ-aminobutyric acid]
Generic mutation [2]: negative | Mutagenesis [3]: negative | Genetic conversion [4]: doubtful | mutagenic activity for the gene ADE 2 [4]: not for the gene ADE 2 | mutagenic activity for the gene TPR 5 ([4]; only in the presence of a microsomial activator): a slight increase in mutagenic activity | effect on alimentation [5]: no effect | effect on autoptic examination [5]: no effect | effect on body weight [5]: no effect | effect on hematological or urinary data [5]: no effect | effect on mortality [5]: no effect | effect on weight or histology of the organs [5]: no effect | cGMP: Relative levels ([6]; 1 mg/kg): 95 ± 8 | cGMP: Relative levels ([6]; 10 mg/kg): 68 ± 4 | cGMP: Relative levels ([6]; 30 mg/kg): 60 ± 5 | cGMP: Relative levels ([6]; 100 mg/kg): 74 ± 6 | LD50 at 336 h ([7]; ip, intra-peritoneal): 783 mg/kg | LD50 at 336 h [7, 13]: 1000 mg/kg | LD50 at 336 h ([7]; oral): 1000 mg/kg | LD50 at 336 h ([8]; ip, intra-peritoneal): 877 mg/kg | LD50 at 336 h [8, 13]: 1000 mg/kg | LD50 at 336 h ([8]; oral): 1000 mg/kg | basal activity, cortical graph ([9]; 100 and 50 mg/kg i.v.): replaced by a slow continuous activity prevalent on the cortical graph | behaviour (sedation) ([9]; 100 and 50 mg/kg i.v.): sedated, but responds to stimuli | desynchronisation of cortical activity by vibro-stimulation and pain stimuli ([9]; 100 and 50 mg/kg i.v.): do not desynchronise cortical activity | duration of synchronous electrical activity ([9]; 100 and 50 mg/kg i.v.): about 3 hours | thalamus and hippocampus activity at 4-5 Hz ([9]; 100 and 50 mg/kg i.v.): replaced by an irregular graph and many slow waves | time after administration at which electrical activity becomes synchronous ([9]; 100 and 50 mg/kg i.v.): 10 min | time after which behaviour and EEG become normal ([9]; 100 and 50 mg/kg i.v.): 4 h | sedative activity ([9]; conclusion from EEG in rabbits, i.v.): demonstrates sedative activity | overcoming of the hematoencephalic barrier ([9]; rabbit, in vivo, iv): overcomes the hematoencephalic barrier | PRL levels ([10]; 100 mg/kg i.v., 0 min): 4 ng/mL | PRL levels ([10]; 100 mg/kg i.v., 15 min): 18 ± 5 ng/mL | PRL levels ([10]; 100 mg/kg i.v., 30 min): 4 ± 6 ng/mL | PRL levels ([10]; 100 mg/kg i.v., 60 min): 4 ng/mL | PRL levels ([10]; 200 mg/kg i.v., 0 min): 4 ng/mL | PRL levels ([10]; 200 mg/kg i.v., 15 min): 49 ± 10 ng/mL | PRL levels ([10]; 200 mg/kg i.v., 30 min): 5 ± 1 ng/mL | PRL levels ([10]; 200 mg/kg i.v., 60 min): 4 ng/mL | PRL levels ([10]; 300 mg/kg i.v., 0 min): 4 ng/mL | PRL levels ([10]; 300 mg/kg i.v., 15 min): 78 ± 5 ng/mL | PRL levels ([10]; 300 mg/kg i.v., 30 min): 21 ± 8 ng/mL | PRL levels ([10]; 300 mg/kg i.v., 60 min): 12 ng/mL | effect on the prolactin release ([10]; intravenous, short intervals after administration): dose-dependent effect on the prolactin release | dose from which the animals show sedation symptoms ([11]; in vivo, po, 20160 min): ≥ 500 mg/kg | symptoms before death ([11]; intra-peritoneal (++)): ataxia, lack of reaction to stimuli, and dyspnea | activity on the gamma-mononeuron [12]: dose-dependent reduction | dorsal root potentials [12]: dose-dependent reduction | mono and polysynaptic reflexes of the ventral root [12]: dose-dependent reduction
